IC50 data for 14 molecules are collected here from ChEMBL document CHEMBL1128973, “Potent matrix metalloproteinase inhibitors: Amino-carboxylate compounds containing modifications of the P1 residue” (Bioorg Med Chem Lett, 1996).

The experiment deals with Stromelysin-1 (Homo sapiens, UniProt P08254). Put plainly: Inhibitory activity against Matrix metalloprotease-3.
Chain of Stromelysin-1 (P08254 whole entry): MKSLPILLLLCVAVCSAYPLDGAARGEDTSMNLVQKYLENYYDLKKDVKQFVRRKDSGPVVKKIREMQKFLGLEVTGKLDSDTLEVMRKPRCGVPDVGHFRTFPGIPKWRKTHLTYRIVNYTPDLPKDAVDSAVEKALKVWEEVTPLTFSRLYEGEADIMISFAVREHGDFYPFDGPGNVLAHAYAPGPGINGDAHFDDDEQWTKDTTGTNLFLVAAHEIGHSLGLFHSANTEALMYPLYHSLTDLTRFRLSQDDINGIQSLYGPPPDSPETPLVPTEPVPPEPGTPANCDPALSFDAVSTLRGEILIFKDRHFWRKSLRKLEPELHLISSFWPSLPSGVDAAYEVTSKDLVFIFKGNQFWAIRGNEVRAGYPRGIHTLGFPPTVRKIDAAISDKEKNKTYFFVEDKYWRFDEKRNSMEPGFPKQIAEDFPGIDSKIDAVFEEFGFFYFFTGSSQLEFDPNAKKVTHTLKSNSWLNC
Regarding `COc1ccc(S(=O)(=O)NCC[C@H](N[C@@H](CCc2ccccc2)C(=O)N2CCC(O)CC2)C(=O)O)cc1`, the 50% inhibitory concentration (IC50) is above 20000 nM. For `Cc1ccc(S(=O)(=O)NCC[C@H](N[C@@H](CCc2ccccc2)C(=O)N[C@@H](CC(C)C)C(=O)Nc2ccccc2)C(=O)O)cc1`, half-maximal inhibition (IC50) was put at 50 nM. For `CNC(=O)[C@H](Cc1ccccc1)NC(=O)[C@H](CCc1ccccc1)N[C@@H](CCNS(=O)(=O)c1ccc2ccccc2c1)C(=O)O`, the midpoint of inhibition, the IC50, lay at 510 nM.

On to `COc1ccc(S(=O)(=O)NCC[C@H](N[C@@H](CCc2ccccc2)C(=O)N[C@@H](CC(C)C)C(=O)Nc2ccccc2)C(=O)O)cc1`, for which the concentration for half-maximal inhibition (IC50) turned out to be 50 nM. In turn, `COc1ccc(S(=O)(=O)NCC[C@H](N[C@@H](CCc2ccccc2)C(=O)N2CCOCC2)C(=O)O)cc1` yielded an IC50 above 20000 nM. The figure for `COc1ccc(S(=O)(=O)NCC[C@H](N[C@@H](CCc2ccccc2)C(=O)N[C@@H](CC(C)C)C(=O)NOCc2ccccc2)C(=O)O)cc1` is 550 nM.

Regarding `CNC(=O)[C@H](Cc1ccccc1)NC(=O)[C@H](CCc1ccccc1)N[C@@H](CCNC(=O)c1cc2ccccc2[nH]1)C(=O)O`, the IC50 worked out at 1100 nM.

As to `COc1ccc(S(=O)(=O)NCC[C@H](N[C@@H](CCc2ccccc2)C(=O)NCc2ccc(C(=O)O)cc2)C(=O)O)cc1`, half-maximal inhibition (IC50) required 14000 nM. `CCOC(=O)N1CCC(NC(=O)[C@H](CCc2ccccc2)N[C@@H](CCNS(=O)(=O)c2ccc(OC)cc2)C(=O)O)CC1` gave an IC50 above 20000 nM. The figure for `CNC(=O)[C@H](Cc1ccccc1)NC(=O)[C@H](CCc1ccccc1)N[C@@H](CCNS(=O)(=O)c1ccc(C)cc1)C(=O)O` is 120 nM. Take `COc1ccc(S(=O)(=O)NCC[C@H](N[C@@H](CCc2ccccc2)C(=O)N2CCN(S(C)(=O)=O)CC2)C(=O)O)cc1`: the IC50 was above 20000 nM. In turn, `CCOC(=O)N1CCN(C(=O)[C@H](CCc2ccccc2)N[C@@H](CCNS(=O)(=O)c2ccc(OC)cc2)C(=O)O)CC1` had an IC50 above 20000 nM. The figure for `CNC(=O)c1ccc(CNC(=O)[C@H](CCc2ccccc2)N[C@@H](CCNS(=O)(=O)c2ccc(OC)cc2)C(=O)O)cc1` is 18000 nM. In the case of `CNC(=O)[C@H](Cc1ccccc1)NC(=O)[C@H](CCc1ccccc1)N[C@@H](CCN1C(=O)NC2(CCCC2)C1=O)C(=O)O`, half-maximal inhibition (IC50) was put at 1900 nM.
